Tested on: ileal flora of meat chicken
Assay: Gas production in vitro by ileal contents of meat chicken (wheat-based diet)
Type: cell-based
Source text: The purpose of the following tests is to compare the production of gas by the flora of the ileal contents of meat chicken, in relation to various test parameters. The production of gas is an indirect indicator of the bacterial activity of the ileal flora of the chicken.
50 meat chicken are raised with a wheat-based diet. These chicken are raised with the same nutritional regimen. The chicken are sacrificed on the 35th day, then the contents of their ileum are removed in anaerobic conditions. The contents are placed in bottles which are stored at −18° C.
Based on the experimental design described in Table I below, the volume of gas produced is measured as a function of time.
48 bottles are filled successively with:
the treatment (nothing for the negative control, HMTBA, EO or the test item),
90 ml of buffer solution, containing wheat starch (nutrient medium for the bacteria); the function of this buffer solution is to maintain a constant pH and suppress O2
10 ml of inoculum, comprising a mixture of ¼ of ileal contents and ¾ of sterile physiological solution, which is filtered and homogenized before filling.
The doses tested are calculated to be representative of the concentrations of the products that would be found in the gastrointestinal contents of the animals.
Using the experimental design described in Table I above, curves of the volume of gas produced as a function of time are obtained, and are mostly sigmoidal.
These curves are modelled according to the following model: Y=A/(1+(C/t)^B) where
A, B and C=parameters of the model
Using these equations, we then analyse the modelled final volume Vf (Vf=A), as well as the time for which the rate of production of gas is maximum, called Trm (this time is used as an indirect measure of the latency, which is not accessible with this model). […] If the probability of the treatment effect is significant, i.e. if p<0.05, the means are then compared by the Fisher PLSD test, which makes it possible to establish the differences on the means between the various treatments.
The experimental conditions and parameters of Example 1 are repeated in Example 2, according to Table III below.
The experimental conditions and parameters of example 1 are repeated in Example 3, according to Table V below.
The experimental conditions and parameters of Example 1 are repeated in example 4, according to Table VII below.
For this test, ileal flora derived from 35-day-old chickens fed with a wheat-based diet is used.
In this test, one of the mixtures tested in Example 1 is tested.

[1] = Example 1, wheat-based diet, HMTBA 83 mg, EO 28-50 mg per bottle (Table I), 4 repetitions
[2] = Example 2, HMTBA 83 mg, EO 15 mg (Table III), EO1 red thyme, EO2 tea tree
[3] = Example 3, HMTBA 83 mg, EO 15 mg (Table V), EO1 cinnamon
[4] = Example 4, HMTBA 83 mg, MEO 15 mg (Table VII), MEO 3/4 tea tree and 1/4 cinnamon
[5] = Example 8, HMTBA 113 mg, origanum oil 13 mg (Table XII)

Question: What does the source list for “2-hydroxy-4-methylthiobutanoic acid [HMTBA]”?
Answer: Effect on bacterial activity measured by Trm (in words) (Example 1): little if any effect; Trm: time for which the rate of production of gas is maximum, Mean [1]: 10.8 h; Vf: final volume of gas produced, Mean [1]: 565 mL; Trm: time for which the gas production rate is at a maximum, Mean [2]: 20.3 h; Vf: final volume of gas produced, Mean [2]: 296.2 mL; Trm: time for which the gas production rate is at a maximum, Mean [3]: 28.1 h; Vf: final volume of gas produced, Mean [3]: 334.3 mL; Trm: time for which the gas production rate is at a maximum, Mean [4]: 15.4 h; Vf: final volume of gas produced, Mean [4]: 421 mL; Trm difference with the negative control (Example 4, negative control Trm 11.1 h): 4.3 h; Effect on fermentation / activity of the bacterial flora (in words) (Example 8): no significant effect; Trm, Means [5]: 16.2 h; Vf, Means [5]: 353 mL
